Results on three molecules are retold here after PMC2662459, “Developmental Toxicity of Ochratoxin A in Rat Embryo Midbrain Micromass Cultures” (International Journal of Molecular Sciences, 2008).

The test system of data set [1] is rat embryo midbrain micromass cultures. The class given is cell-based. As for the experimental part: (§1) The values of drug concentration, which inhibited cells viability by 50% (IC50) and reduced differentiation by 50% (ID50) when compared to unexposed control cells, were calculated according to Hill’s equation (sigmoidal model of concentration-response curve). Statistically significant differences between mean values obtained in immunoenzymatic analysis were determined based on analysis of variance (ANOVA) followed by Tukey – Kramer post-hoc test. Values of P < 0.05 were considered as statistically significant. All calculations were done using LSW Data Analysis Toolbox ver. 1.1.1. (MDL® Information Systems, Inc.) in Microsoft Excel 2000 spreadsheet and Kyplot software (Koichi Yoshioka, version 2.0 beta 4). In order to classify embryotoxic potential the mean inhibition concentrations for differentiation (ID50) of test chemical was used and the biostatistically based prediction model (PM) was applied. It is based on the linear discriminate analysis of three functions: function I: 6.65 × log (ID50)–9.49; function II: 6.16 × log (ID50)–8.29; function III: –1.31 × log (ID50)–1.42. The function providing the highest value was used to determine the class of embryotoxicity (class 1 – non-embryotoxic, class 2 – weakly embryotoxic, class 3 – strongly embryotoxic).

For data set [2], the system named is MAP2 expression (neurons in late stage of development). In words: Differentiation, immunoenzymatic determination of MAP2 expression. Type of data set: cell-based, rat. Conditions: for Inhibition of differentiation, ID50: Expression of MAP2 (OD, 450 nm): five days exposure, mean±SD from 3 independent experiments. The method, then: (§2) This study was carried out according to compliance with bioethical principles. Wistar albino rats were housed under standard laboratory condition of lighting (12 h dark/12 h light), temperature (20 ± 2 °C), and relative humidity (50 – 60%) with free access to commercial feed (Murigan) and tap water. Animals (10–12 week old) were mated overnight and the appearance of a vaginal plug on the next morning was considered as day one of pregnancy. Rat embryos were collected on day 13 of gestation. Procedures were followed essentially as described in INVITTOX Protocol No. 114 [23].
(§3) Tissues were pooled from a number of embryos, washed and incubated for 20 min at 37 °C in sequence in Earle’s balanced salt solution calcium and magnesium-free (CMF, GIBCO), and 1% trypsin (GIBCO) in CMF. Then the tissues were washed in CMF and culture medium (Ham’s F-12 nutrient mixture: foetal bovine serum: L-glutamine: penicillin/streptomycin - 88:10:1:1 v/v – all materials were from GIBCO). A single cell suspension was ensured by mechanical dissociation followed by passing the suspension through sterile 10 μm nylon mesh. Viable cells density was assessed by trypan blue exclusion assay using Bürker’s haemocytometer.
(§4) High-cell-density cultures were set up carefully as a 5–10 μL drop in the centre of each well of 96-well fibronectin coated microplate (BECTON DICKINSON), so that number of cells /well was 5 × 10^4. After 2 h incubation (37°C, 5% CO2) the cells were exposed to different concentrations of tested compounds and incubated five days. […]
(§5) To indicate the target cells damaged, immunofluorescent (IF) and immunoenzymatic (IE) staining was performed. […] IF staining fluorescence was examined using a fluorescent microscope (λ = 490 nm). In IE staining, a substrate (3,3’,5,5’-tetramethylbenzidine, SIGMA) was added (100 μL/well) and reaction was evaluated for 30 min at room temperature. […] The expression level of particular proteins was determined by measuring optical density at 450 nm. […]

The test system of data set [3] is GFAP expression (astrocytes). Description: Differentiation, immunoenzymatic determination of GFAP expression. Type of data set: cell-based, rat. Conditions: for Inhibition of differentiation, ID50: Expression of GFAP (OD, 450 nm): five days exposure, mean±SD from 3 independent experiments. As for the experimental part:
as §2, §3, §4, §5

The nature of a further data set: in vitro. The class given is cell-based. To be noted: Wistar albino, rat. As for the experimental part: as §2
Tissues were pooled from a number of embryos, washed and incubated for 20 min at 37 °C in sequence in Earle’s balanced salt solution calcium and magnesium-free (CMF, GIBCO), and 1% trypsin (GIBCO) in CMF. Then the tissues were washed in CMF and culture medium (Ham’s F-12 nutrient mixture: foetal bovine serum: L-glutamine: penicillin/streptomycin - 88:10:1:1 v/v – all materials were from GIBCO). […] Viable cells density was assessed by trypan blue exclusion assay using Bürker’s haemocytometer. […]
Cytotoxicity was quantified using neutral red uptake test (NRU). […] The eluted stain intensity (optical density, OD) was measured at 540 nm following at least 2 h incubation. Surviving cell number was directly related to the absorbance of the eluted stain. […]

For data set [4], the system named is βIII tubulin expression (neurons in early stage of development). Description: Differentiation, immunoenzymatic determination of βIII-tubulin expression. Type of data set: cell-based, rat. To be noted: for Inhibition of differentiation, ID50: Expression of βIII tubulin (OD, 450 nm): five days exposure, mean±SD from 3 independent experiments. As for the experimental part:
as §2, §3, §4, §5

Another data set deals with mice offspring brain. Conditions: three month mice offspring exposed prenatally; cited from earlier work.
The subject of data set [5] is neurons and astrocytes of cerebellum. To be noted: protein and DNA synthesis, rat embryo brain aged 15–16 days, cited from earlier work.
For data set [6], the system named is foetuses of pregnant rats. Conditions: single oral dose; cited from earlier work.
Data set [7] concerns neurons and astrocytes of ventral mesencephalon. To be noted: protein and DNA synthesis, rat embryo brain aged 15–16 days, cited from earlier work.
Data set [8] relates to rat embryo midbrain micromass cultures (neurospheres). In words: Differentiation, computerised image analysis of haematoxylin stained neurospheres. The class given is cell-based. The method, then:
as §2, §3
High-cell-density cultures were set up carefully as a 5–10 μL drop in the centre of each well of 96-well fibronectin coated microplate (BECTON DICKINSON), so that number of cells /well was 5 × 10^4. After 2 h incubation (37°C, 5% CO2) the cells were exposed to different concentrations of tested compounds and incubated five days. Then dual assessment i.e. cytotoxicity and an impact of tested compound on cells differentiation (embryotoxicity) were done in the same cultures.
After removing the eluted solution, the cells were fixed in 10% formaldehyde for 20 min and stained (approximately 10 s) with Gill’s haematoxylin. Morphometric analysis was performed on digitised images of cells taken with Nikon SMZ stereoscopic microscope linked to Panasonic CCD BP-KR 222E colour camera. The number of neurospheres (containing differentiated neural cells) was counted and their total and individual area was measured using computer image analysis software (LUCIA Measurement System).
as §1, with “It is based on the linear discriminate analysis of three functions: function I: 6.65 × log (ID50)–9.49; function II: 6.16 × log (ID50)–8.29; function III: –1.31 × log (ID50)–1.42.” left out

Setting [9] is: five days exposure, computerised image analysis, mean±SD from 3 independent experiments.

Values after ≈ are worked out from the molar mass of the structure shown. Structures can show the parent of a compound that is named as a salt. Where two headings read alike, the source gives them in different places.

Take `CC1(C)S[C@@H]2[C@H](NC(=O)Cc3ccccc3)C(=O)N2[C@H]1C(=O)O` [Pen-G, Penicillin G sodium salt, reference compound]: the “Embryotoxicity at fixed concentration” value in data set [1] was “not embryotoxic”. The “Class of embryotoxicity (prediction model)” value (shortened to “Class … (prediction model)”) in data set [1] (rat) was “class 1”.

On to `O=c1[nH]cc(F)c(=O)[nH]1` [5-FU, 5-fluorouracil, reference compound], for which the “Inhibition of differentiation, ID50: Expression of MAP2 (OD, 450 nm)” value in data set [2] is 0.16 ± 0.010 µg/mL. Also, the “Inhibition of differentiation, ID50: Expression of GFAP (OD, 450 nm)” value in data set [3] is 0.18 ± 0.012 µg/mL. The “Class … (prediction model)” value in data set [1] (rat) was “class 3”. This molecule also showed an IC50 in “in vitro” of 0.15 ± 0.01 µg/mL (≈ 1.15 µM). Moreover, in [4], the “Inhibition of differentiation, ID50: Expression of βIII tubulin (OD, 450 nm)” value was determined as 0.14 ± 0.010 µg/mL.

Regarding `C[C@@H]1Cc2c(Cl)cc(C(=O)N[C@@H](Cc3ccccc3)C(=O)O)c(O)c2C(=O)O1` [OTA, ochratoxin A], in data set [2] (NRU IC50 over ID50), the “IC50/ID50 ratio: MAP2” value stood at 0.6. For the same molecule, in data set [2], the “Inhibition of differentiation, ID50: Expression of MAP2 (OD, 450 nm)” value came to 3.90 ± 0.350 µg/mL. In the data set on mice offspring brain, the “Tissue weight and DNA content, cerebral hemispheres” value is reported as 80 % of control; the “Tissue weight and DNA content, remainder of the brain” value was 90 % of control. In data set [5], the “Median inhibition concentration, astrocytes cerebellum” value is ~27.9 ± 3.6 µg/mL and the “Median inhibition concentration, neurons cerebellum” value was ~9.7 ± 2.8 µg/mL. The IC50 in [5] (read-out: Median inhibition concentration, astrocytes cerebellum) was ~69 µM. For the same molecule, the IC50 in data set [5] (read-out: Median inhibition concentration, neurons cerebellum) was ~24 µM. In addition, in data set [3] (NRU IC50 over ID50), the “IC50/ID50 ratio: GFAP” value is on record as 0.5. For the same molecule, in data set [3], the “Inhibition of differentiation, ID50: Expression of GFAP (OD, 450 nm)” value turned out to be 4.87 ± 0.351 µg/mL. Besides, in data set [1] (all differentiation endpoints), the “IC50/ID50 ratio, all endpoints” value is reported as < 2. The “ID50, all endpoints of differentiation” value in data set [1] (for all endpoints) was < 10 µg/mL. In addition, in data set [1] (function with highest value from ID50), the “Class … (prediction model)” value was “class 3”. Further, the “Minimum effective teratogenic dose” value in [6] is 2.75 mg/kg b.w. Moreover, in “in vitro” (five days exposure, mean±SD from 3 independent experiments, read-out: Cytotoxicity IC50 (Viability, Neutral Red OD, 540 nm)), the IC50 at 5 days was 2.52 ± 0.062 µg/mL (≈ 6.24 µM). For the same molecule, the “IC50/ID50 ratio: βIII tubulin” value in data set [4] (NRU IC50 over ID50) is on record as 0.5. Moreover, in data set [4], the “Inhibition of differentiation, ID50: Expression of βIII tubulin (OD, 450 nm)” value came out at 4.84 ± 0.581 µg/mL. Besides, in [7], the “Median inhibition concentration, astrocytes ventral mesencephalon” value was ~16.2 ± 2.15 µg/mL and the “Median inhibition concentration, neurons ventral mesencephalon” value is ~5.6 ± 0.40 µg/mL. Also, in data set [7] (read-out: Median inhibition concentration, astrocytes ventral mesencephalon), the IC50 was ~40 µM. Moreover, in data set [7] (read-out: Median inhibition concentration, neurons ventral mesencephalon), the IC50 is ~14 µM. Also, in data set [8] (NRU IC50 over ID50), the “IC50/ID50 ratio: Number of neurospheres” value amounted to 0.7, the “IC50/ID50 ratio: Particular area of neurospheres” value was 1.9 and the “IC50/ID50 ratio: Total area of neurospheres” value amounted to 1.1. Further, in data set [8] (setting [9]), the “Inhibition of differentiation, ID50: Number of neurospheres” value is 3.40 ± 1.100 µg/mL; the “Inhibition of differentiation, ID50: Particular area of neurospheres” value worked out at 1.29 ± 0.923 µg/mL; the “Inhibition of differentiation, ID50: Total area of neurospheres” value came to 2.19 ± 0.245 µg/mL. Besides, in data set [8] (two highest concentrations, 5 days, haematoxylin staining), the “Differentiated cells after exposure to the two highest concentrations” value is “no differentiated cells were observed”.
